Test: mGlu5 Ca2+ Flux Assay: HEK 293A cells stably expressing rat mGlu5 were plated in black-walled, clear-bottomed, poly-D-lysine coated 384-well plates in 20 μL of assay medium (DMEM containing 10% dialyzed FBS, 20 mM HEPES, 100 units/mL penicillin/streptomycin plus 250 ng/mL Fungizone, and 1 mM sodium pyruvate) at a density of 20K cells/well. The cells were grown overnight at 37° C. in the presence of 5% CO2. The next day, medium was removed and the cells incubated with 20 μL of 2.3 μM Fluo-4, AM prepared as a 2.3 mM stock in DMSO and mixed in a 1:1 ratio with 10% (w/v) pluronic acid F-127 and diluted in assay buffer (Hank's balanced salt solution, 20 mM HEPES, and 2.5 mM probenecid) for 45 minutes at 37° C. Dye was removed, 20 μL of assay buffer was added, and the plate was incubated for 5 minutes at room temperature.
Details: not given

| SMILES | IC50 [µM] |
| --- | --- |
| O=C1c2cc(CNc3ccc(OC(F)F)cc3)nn2CCN1c1ccc(F)cc1 | 0.334 |
| Cc1cccc(NCc2cc3n(n2)[C@H](C)CN(c2ccc(F)cc2)C3=O)c1 | 1.21 |

Same assay, conditions: HEK293-A

| SMILES | IC50 [µM] |
| --- | --- |
| COc1ccc(N(C)Cc2cc3n(n2)CCN(c2ccc(OC)cc2)C3=O)cc1 | 2.88 |
| COc1ccc(NCc2cc3n(n2)CCN(c2ccc(F)c(F)c2)C3=O)cc1 | 1.47 |
| COc1ccc(N(C)Cc2cc3n(n2)CCN(c2c(F)cccc2F)C3=O)cc1 | 1.02 |
| Cc1cccc(NCc2cc3n(n2)[C@@H](C)CN(c2ccc(F)cc2)C3=O)c1 | 1.84 |
